Results taken from patent US11999695B2, “YAP1 inhibitors that target the interaction of YAP1 with OCT4” (H. LEE MOFFITT CANCER CENTER AND RESEARCH INSTITUTE, INC., priority 2016, dated 2024).

Columns and labels:
YAP1:OCT4 = YAP1:OCT4 (Homo sapiens, UniProt P46937); experiment: In vitro YAP1:OCT4 ELISA binding assay; settings: YAP1:OCT4 disruption
Method: Activities of Compounds in the In Vitro YAP1:OCT4 ELISA Binding Assay
Selected compounds were assayed in a YAP1:OCT4 binding assay.

binding of Oct4 to YAP1 = biological target: T1, binding of Oct4 to YAP1 (Homo sapiens, UniProt P46937); experiment: Immunoprecipitation-Western blot of Oct4-YAP1 binding (FIG. 15); type: cell-based; settings: 5 μM, 72 hours
T1 construct: Lysates were prepared from the cells, and immunoprecipitated with an antibody to OCt4; endogenous in cells; host or cells: A549 and H1650 cells
Method: FIG. 15 is a group of gel images showing peptidomimetic compounds SR2-022, SR2-030, and SR2-033 reduced YAP1-Oct4 interaction as detected by IP-WB. An immunoprecipitation-Western blot experiment was conducted to assess if the indicated compounds could disrupt the binding of Oct4 to YAP1. IP-western blots were conducted using the protocols described in Bora-Singhal et al, 2015. Essentially, cells were treated with 5 μM of the indicated compounds for 72 hours. Lysates were prepared from the cells, and immunoprecipitated with an antibody to OCt4, or a control IgG. Lysates as well as the immunoprecipitates were resoled by a polyacrylamide gel and a western blot was conducted using an antibody to YAP1.

T1 sequence (P46937 whole entry): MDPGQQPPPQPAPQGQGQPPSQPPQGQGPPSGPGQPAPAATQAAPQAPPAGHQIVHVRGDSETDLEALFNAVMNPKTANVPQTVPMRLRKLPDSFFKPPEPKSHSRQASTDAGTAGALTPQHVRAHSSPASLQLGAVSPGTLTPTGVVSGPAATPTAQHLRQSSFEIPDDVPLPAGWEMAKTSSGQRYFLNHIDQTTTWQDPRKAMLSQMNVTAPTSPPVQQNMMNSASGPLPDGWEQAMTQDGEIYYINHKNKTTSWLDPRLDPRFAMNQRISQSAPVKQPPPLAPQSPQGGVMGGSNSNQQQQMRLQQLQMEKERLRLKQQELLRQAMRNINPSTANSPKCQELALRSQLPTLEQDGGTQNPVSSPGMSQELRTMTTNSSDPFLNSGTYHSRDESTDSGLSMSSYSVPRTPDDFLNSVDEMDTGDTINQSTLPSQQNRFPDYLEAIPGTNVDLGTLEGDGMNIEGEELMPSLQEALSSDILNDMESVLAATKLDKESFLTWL
YAP1:OCT4, sequence (P46937 whole entry): as above

Row | SMILES | IC50 (YAP1:OCT4) | YAP1-Oct4 interaction detected by IP-WB (binding of Oct4 to YAP1; A549 cells) | YAP1-Oct4 interaction detected by IP-WB (binding of Oct4 to YAP1; H1650 cells)
1 | COC(=O)[C@H](Cc1ccc(OCc2ccccc2)cc1)NC(=O)CC1CCN(C(=O)OC(C)(C)C)CC1 [SR1-083, tert-Butyl (S)-4-(2-((3-(4-(benzyloxy)phenyl)-1-methoxy-1-oxopropan-2-yl)amino)-2-oxoethyl)piperidine-1-carboxylate] | 1 to 10 µM |  | 
2 | COC(=O)[C@H](Cc1ccc(OCc2ccccc2)cc1)NC(=O)CN1CCN(C(=O)OC(C)(C)C)CC1 [SR1-090, tert-Butyl (S)-4-(2-((3-(4-(benzyloxy)phenyl)-1-methoxy-1-oxopropan-2-yl)amino)-2-oxoethyl)piperazine-1-carboxylate] | > 10 µM |  | 
3 | COC(=O)[C@H](Cc1ccc(OCc2ccccc2)cc1)NC(=O)CC1CCN(C(=O)CCc2ccccc2)CC1 [SR1-119, Methyl (S)-3-(4-(benzyloxy)phenyl)-2-(2-(1-(3-phenylpropanoyl)piperidin-4-yl)acetamido)propanoate] | 1 to 10 µM |  | 
4 | COC(=O)[C@H](Cc1ccc(OCc2ccccc2)cc1)NC(=O)CN1CCN(C(=O)[C@@H]2CCCN2C(=O)OCC2c3ccccc3-c3ccccc32)CC1 [SR1-094, Fmoc-Pro-piperazineacetic acid Tyr(bzl)-OMe] | > 10 µM |  | 
5 | COC(=O)[C@H](Cc1ccc(OCc2ccccc2)cc1)NC(=O)CC1CCN(Cc2ccccc2)CC1 [SR1-117, Methyl (S)-3-(4-(benzyloxy)phenyl)-2-(2-(1-benzylpiperidin-4-yl)acetamido)propanoate] | > 10 µM |  | 
6 | CC(C)NC(=O)[C@H](Cc1ccc(OCc2ccccc2)cc1)NC(=O)CC1CCN(C(=O)OC(C)(C)C)CC1 [SR1-167, tert-butyl (S)-4-(2-((3-(4-(benzyloxy)phenyl)-1-(isopropylamino)-1-oxopropan-2-yl)amino)-2-oxoethyl)piperidine-1-carboxylate] | 1 to 10 µM |  | 
7 | COC(=O)[C@H](Cc1ccc(OCc2ccccc2)cc1)NC(=O)CC1CCN(C(=O)CCc2ccc(F)cc2)CC1 [SR2-008, Methyl (S)-3-(4-(benzyloxy)phenyl)-2-(2-(1-(3-(4-fluorophenyl)propanoyl)piperidin-4-yl)acetamido)propanoate] | 1 to 10 µM |  | 
8 | COC(=O)[C@H](Cc1ccc(OCc2ccccc2)cc1)NC(=O)CC1CCN(C(=O)CC(c2ccccc2)c2ccccc2)CC1 [SR2-029, Methyl (S)-3-(4-(benzyloxy)phenyl)-2-(2-(1-(3,3-diphenylpropanoyl)piperidin-4-yl)acetamido)propanoate] | < 10 µM |  | 
9 | COC(=O)[C@H](Cc1ccc(OCc2ccccc2)cc1)NC(=O)CC1CCN(C(=O)CCc2cccc(F)c2)CC1 [SR2-010, Methyl (S)-3-(4-(benzyloxy)phenyl)-2-(2-(1-(3-(3-fluorophenyl)propanoyl)piperidin-4-yl)acetamido)propanoate] | < 10 µM |  | 
10 | O=C(CC1CCN(C(=O)CCc2ccc(Cl)c(Cl)c2)CC1)N[C@@H](Cc1ccc(OCc2ccccc2)cc1)C(=O)O [SR2-113, (S)-3-(4-(Benzyloxy)phenyl)-2-(2-(1-(3-(3,4-dichlorophenyl)propanoyl)piperidin-4-yl)acetamido)propanoic acid] | < 10 µM |  | 
11 | COC(=O)[C@H](Cc1ccc(OCc2ccccc2)cc1)NC(=O)CC1CCN(C(=O)CCc2ccc(C(F)(F)F)cc2)CC1 [SR2-009, Methyl (S)-3-(4-(benzyloxy)phenyl)-2-(2-(1-(3-(4-(trifluoromethyl)phenyl)propanoyl)-piperidin-4-yl)acetamido)propanoate] | 1 to 10 µM |  | 
12 | COC(=O)[C@H](Cc1ccc(OCc2ccccc2)cc1)NC(=O)CC1CCN(C(=O)CCc2cccc(Cl)c2)CC1 [SR2-032, Methyl (S)-3-(4-(benzyloxy)phenyl)-2-(2-(1-(3-(3-chlorophenyl)propanoyl)piperidin-4-yl)acetamido)propanoate] | < 10 µM |  | 
13 | COC(=O)[C@H](Cc1ccc(OCc2ccccc2)cc1)NC(=O)CC1CCN(C(=O)CCc2ccccc2OC)CC1 [SR2-006, Methyl (S)-3-(4-(benzyloxy)phenyl)-2-(2-(1-(3-(2-methoxyphenyl)propanoyl)piperidin-4-yl)acetamido)propanoate] | 1 to 10 µM |  | 
14 | COC(=O)[C@H](Cc1ccc(OCc2ccccc2)cc1)NC(=O)CC1CCN(C(=O)Cc2ccccc2)CC1 [SR1-122, Methyl (S)-3-(4-(benzyloxy)phenyl)-2-(2-(1-(2-phenylacetyl)piperidin-4-yl)acetamido)-propanoate] | 1 to 10 µM |  | 
15 | O=C(CC1CCN(C(=O)CCc2ccccc2)CC1)N[C@@H](Cc1ccc(OCc2ccccc2)cc1)C(=O)NC1CC1 [SR2-015, (S)-3-(4-(Benzyloxy)phenyl)-N-cyclopropyl-2-(2-(1-(3-phenylpropanoyl)piperidin-4-yl)acetamido)propanamide] | 1 to 10 µM |  | 
16 | COC(=O)[C@H](Cc1ccc(OCc2ccccc2)cc1)NC(=O)CC1CCN(C(=O)CCc2cccc(C)c2)CC1 [SR2-036, Methyl (S)-3-(4-(benzyloxy)phenyl)-2-(2-(1-(3-(m-tolyl)propanoyl)piperidin-4-yl)acetamido)propanoate] | 1 to 10 µM |  | 
17 | O=C(CC1CCN(C(=O)CCc2ccc(F)cc2)CC1)N[C@@H](Cc1ccc(OCc2ccccc2)cc1)C(=O)O [SR2-120, (S)-3-(4-(Benzyloxy)phenyl)-2-(2-(1-(3-(4-fluorophenyl)propanoyl)piperidin-4-yl)acetamido)propanoic acid] | < 10 µM |  | 
18 | COC(=O)[C@H](Cc1ccc(OCc2ccccc2)cc1)NC(=O)CC1CCN(C(=O)c2ccccc2)CC1 [SR1-118, Methyl (S)-2-(2-(1-benzoylpiperidin-4-yl)acetamido)-3-(4-(benzyloxy)phenyl)propanoate] | 1 to 10 µM |  | 
19 | O=C(CC1CCN(C(=O)CCc2ccccc2)CC1)N[C@@H](Cc1ccc(OCc2ccccc2)cc1)C(=O)NC1CCC1 [SR2-016, (S)-3-(4-(Benzyloxy)phenyl)-N-cyclobutyl-2-(2-(1-(3-phenylpropanoyl)piperidin-4-yl)acetamido)propanamide] | 1 to 10 µM |  | 
20 | COC(=O)[C@H](Cc1ccc(OCc2ccccc2)cc1)NC(=O)CC1CCN(C(=O)CCc2cccc(Br)c2)CC1 [SR2-107, Methyl (S)-3-(4-(benzyloxy)phenyl)-2-(2-(1-(3-(3-bromophenyl)propanoyl)piperidin-4-yl)acetamido)propanoate] | < 10 µM |  | 
21 | O=C(CC1CCN(C(=O)CCc2cccc(F)c2)CC1)N[C@@H](Cc1ccc(OCc2ccccc2)cc1)C(=O)O [SR2-117, (S)-3-(4-(Benzyloxy)phenyl)-2-(2-(1-(3-(3-fluorophenyl)propanoyl)piperidin-4-yl)acetamido)propanoic acid] | < 10 µM |  | 
22 | CC(C)(C)OC(=O)N1CCC(CC(=O)N[C@@H](Cc2ccc(OCc3ccccc3)cc2)C(=O)O)CC1 [SR1-152, (S)-3-(4-(benzyloxy)phenyl)-2-(2-(1-(tert-butoxycarbonyl)piperidin-4-yl)acetamido)-propanoic acid] | 1 to 10 µM |  | 
23 | COC(=O)[C@H](Cc1ccc(OCc2ccccc2)cc1)NC(=O)CC1CCN(C(=O)CCc2ccc(Cl)c(Cl)c2)CC1 [SR2-030, Methyl (S)-3-(4-(benzyloxy)phenyl)-2-(2-(1-(3-(3,4-dichlorophenyl)propanoyl)piperidin-4-yl)acetamido)propanoate] | < 10 µM | completely abolished | significantly reduced
24 | N#Cc1ccc(CCC(=O)N2CCC(CC(=O)N[C@@H](Cc3ccc(OCc4ccccc4)cc3)C(=O)O)CC2)cc1 [SR2-114, (S)-3-(4-(Benzyloxy)phenyl)-2-(2-(1-(3-(4-cyanophenyl)propanoyl)piperidin-4-yl)acetamido)propanoic acid] | < 10 µM |  | 
25 | COC(=O)[C@H](Cc1ccc(OCc2ccccc2)cc1)NC(=O)CC1CCN(C(=O)CCc2ccc(Cl)cc2)CC1 [SR2-004, Methyl (S)-3-(4-(benzyloxy)phenyl)-2-(2-(1-(3-(4-chlorophenyl)propanoyl)piperidin-4-yl)acetamido)propanoate] | < 10 µM |  | 
26 | COC(=O)[C@H](Cc1ccc(OCc2ccccc2)cc1)NC(=O)CC1CCN(C(=O)CCc2cc(Cl)cc(Cl)c2)CC1 [SR2-106, Methyl (S)-3-(4-(benzyloxy)phenyl)-2-(2-(1-(3-(3,5-dichlorophenyl)propanoyl)piperidin-4-yl)acetamido)propanoate] | < 10 µM |  | 
27 | CCOc1ccc(CCC(=O)N2CCC(CC(=O)N[C@@H](Cc3ccc(OCc4ccccc4)cc3)C(=O)OC)CC2)cc1 [SR2-007, Methyl (S)-3-(4-(benzyloxy)phenyl)-2-(2-(1-(3-(4-ethoxyphenyl)propanoyl)piperidin-4-yl)acetamido)propanoate] | 1 to 10 µM |  | 
28 | O=C(CC1CCN(C(=O)CCc2ccccc2)CC1)N[C@@H](Cc1ccc(OCc2ccccc2)cc1)C(=O)O [SR2-022, (S)-3-(4-(Benzyloxy)phenyl)-2-(2-(1-(3-phenylpropanoyl)piperidin-4-yl)acetamido)propan-oic acid] | < 10 µM | completely abolished | significantly reduced
29 | CCOc1ccc(CCC(=O)N2CCC(CC(=O)N[C@@H](Cc3ccc(OCc4ccccc4)cc3)C(=O)O)CC2)cc1 [SR2-122, (S)-3-(4-(Benzyloxy)phenyl)-2-(2-(1-(3-(4-ethoxyphenyl)propanoyl)piperidin-4-yl)acetamido)propanoic acid] | < 10 µM |  | 
30 | O=C(CC1CCN(C(=O)CCc2ccccc2)CC1)N[C@@H](Cc1ccc(OCc2ccccc2)cc1)C(=O)NCC1CC1 [SR2-019, (S)-3-(4-(benzyloxy)phenyl)-N-(cyclopropylmethyl)-2-(2-(1-(3-phenylpropanoyl)piperidin-4-yl)acetamido)propanamide] | 1 to 10 µM |  | 
